# Results published in ChEMBL document CHEMBL6078622, “Enhancing outer membrane permeability of tetracycline antibiotics in P. aeruginosa using TOB-CIP conjugates” (RSC Med Chem, 2024).
# Active and inactive are the calls of the source. The calls are words filed in the database; no cut-off is given here.
# Assays:
# [1] = test system: Pseudomonas aeruginosa; assay: Synergistic antibacterial activity against Pseudomonas aeruginosa PA101243 in presence of doxycycline by checkerboard assay; assay type: functional
# [2] = test system: Pseudomonas aeruginosa; assay: Synergistic antibacterial activity against Pseudomonas aeruginosa PA259 in presence of minocycline by checkerboard assay; assay type: functional
# [3] = test system: Escherichia coli; assay: Antibacterial activity against Escherichia coli ATCC 25922 assessed as inhibition of visible bacterial growth by CLSI based broth-microdilution method; assay type: functional
# [4] = test system: Pseudomonas aeruginosa; assay: Antibacterial activity against Pseudomonas aeruginosa PA259 assessed as increase in bacterial load in presence of eravacycline by time kill assay; assay type: functional, organism-based
# [5] = test system: Pseudomonas aeruginosa; assay: Antibacterial activity against Pseudomonas aeruginosa PA100036 assessed as inhibition of visible bacterial growth by CLSI based broth-microdilution method; assay type: functional
# [6] = test system: Pseudomonas aeruginosa; assay: Synergistic antibacterial activity against Pseudomonas aeruginosa PA262 assessed as fractional inhibitory concentration index in presence of eravacycline by checkerboard assay; assay type: functional
# [7] = test system: Pseudomonas aeruginosa; assay: Synergistic antibacterial activity against Pseudomonas aeruginosa PA259 assessed as fold change in eravacycline MIC by CLSI based broth-microdilution method relative to eravacycline alone; assay type: functional
# [8] = test system: Pseudomonas aeruginosa; assay: Antibacterial activity against Pseudomonas aeruginosa PAO1 assessed as inhibition of bacterial growth by measuring fold change in MIC in presence of 10 % fetal bovine serum by CLSI protocol based assay; assay type: functional
# [9] = test system: Pseudomonas aeruginosa; assay: Synergistic antibacterial activity against Pseudomonas aeruginosa PA095 in presence of tigecycline by checkerboard assay; assay type: functional
# [10] = test system: Pseudomonas aeruginosa; assay: Synergistic antibacterial activity against Pseudomonas aeruginosa PA095 in presence of eravacycline by checkerboard assay; assay type: functional
# [11] = test system: Pseudomonas aeruginosa; assay: Synergistic antibacterial activity against Pseudomonas aeruginosa PA264 in presence of tigecycline by checkerboard assay; assay type: functional
# [12] = test system: Pseudomonas aeruginosa; assay: Antibacterial activity against Pseudomonas aeruginosa PA262 assessed as inhibition of visible bacterial growth by CLSI based broth-microdilution method; assay type: functional
# [13] = test system: Pseudomonas aeruginosa; assay: Synergistic antibacterial activity against Pseudomonas aeruginosa PA114228 assessed as fractional inhibitory concentration index in presence of minocycline by checkerboard assay; assay type: functional
# [14] = test system: Pseudomonas aeruginosa; assay: Synergistic antibacterial activity against Pseudomonas aeruginosa PA264 assessed as fractional inhibitory concentration index in presence of doxycycline by checkerboard assay; assay type: functional
# [15] = test system: Pseudomonas aeruginosa; assay: Synergistic antibacterial activity against Pseudomonas aeruginosa PA100036 assessed as fractional inhibitory concentration index in presence of eravacycline by checkerboard assay; assay type: functional
# [16] = test system: Pseudomonas aeruginosa; assay: Synergistic antibacterial activity against Pseudomonas aeruginosa PA095 assessed as fractional inhibitory concentration index in presence of doxycycline by checkerboard assay; assay type: functional
# [17] = test system: HepG2; assay: Cytotoxicity against human HepG2 cells assessed as inhibition of cell vitality at 162 uM; assay type: functional; design: scale not given: the % may be the effect or the level left
# [18] = test system: Pseudomonas aeruginosa; assay: Antibacterial activity against Pseudomonas aeruginosa PA101243 assessed as tigecycline MIC by CLSI based broth-microdilution method; assay type: functional
# [19] = test system: Pseudomonas aeruginosa; assay: Antibacterial activity against Pseudomonas aeruginosa PA262 assessed as minocycline MIC by CLSI based broth-microdilution method; assay type: functional
# [20] = test system: Pseudomonas aeruginosa; assay: Synergistic antibacterial activity against Pseudomonas aeruginosa PA101243 assessed as fold change in doxycycline MIC by CLSI based broth-microdilution method relative to doxycycline alone; assay type: functional
# [21] = test system: Pseudomonas aeruginosa; assay: Synergistic antibacterial activity against Pseudomonas aeruginosa PA100036 assessed as fold change in minocycline MIC by CLSI based broth-microdilution method relative to minocycline alone; assay type: functional
# [22] = test system: Pseudomonas aeruginosa; assay: Antibacterial activity against Pseudomonas aeruginosa PA264 assessed as tigecycline MIC by CLSI based broth-microdilution method; assay type: functional
# [23] = test system: Pseudomonas aeruginosa; assay: Synergistic antibacterial activity against Pseudomonas aeruginosa PA259 assessed as fractional inhibitory concentration index in presence of minocycline by checkerboard assay; assay type: functional
# [24] = test system: Pseudomonas aeruginosa; assay: Antibacterial activity against Pseudomonas aeruginosa PA264 assessed as eravacycline MIC by CLSI based broth-microdilution method; assay type: functional
# [25] = test system: Pseudomonas aeruginosa; assay: Antibacterial activity against Pseudomonas aeruginosa PA114228 assessed as minocycline MIC by CLSI based broth-microdilution method; assay type: functional
# [26] = test system: Pseudomonas aeruginosa; assay: Synergistic antibacterial activity against Pseudomonas aeruginosa PA200 in presence of eravacycline by checkerboard assay; assay type: functional
# [27] = test system: Pseudomonas aeruginosa; assay: Synergistic antibacterial activity against Pseudomonas aeruginosa PA114228 in presence of doxycycline by checkerboard assay; assay type: functional
# [28] = test system: Pseudomonas aeruginosa; assay: Antibacterial activity against Pseudomonas aeruginosa PAO1 assessed as inhibition of bacterial growth by measuring fold change in MIC in presence of 25 % fetal bovine serum by CLSI protocol based assay; assay type: functional
# [29] = test system: Pseudomonas aeruginosa; assay: Synergistic antibacterial activity against Pseudomonas aeruginosa PA101243 assessed as fractional inhibitory concentration index in presence of tigecycline by checkerboard assay; assay type: functional
# [30] = test system: Pseudomonas aeruginosa; assay: Synergistic antibacterial activity against Pseudomonas aeruginosa PA114228 assessed as fold change in tigecycline MIC by CLSI based broth-microdilution method relative to tigecycline alone; assay type: functional
# [31] = test system: Pseudomonas aeruginosa; assay: Antibacterial activity against Pseudomonas aeruginosa PA100036 assessed as eravacycline MIC by CLSI based broth-microdilution method; assay type: functional
# [32] = test system: Pseudomonas aeruginosa; assay: Antibacterial activity against Pseudomonas aeruginosa PA262 assessed as tigecycline MIC by CLSI based broth-microdilution method; assay type: functional
# [33] = test system: Pseudomonas aeruginosa; assay: Synergistic antibacterial activity against Pseudomonas aeruginosa PA100036 assessed as fractional inhibitory concentration index in presence of doxycycline by checkerboard assay; assay type: functional
# [34] = test system: Pseudomonas aeruginosa; assay: Synergistic antibacterial activity against Pseudomonas aeruginosa PA200 assessed as fractional inhibitory concentration index in presence of minocycline by checkerboard assay; assay type: functional
# [35] = test system: Pseudomonas aeruginosa; assay: Synergistic antibacterial activity against Pseudomonas aeruginosa PA114228 assessed as fractional inhibitory concentration index in presence of doxycycline by checkerboard assay; assay type: functional
# [36] = test system: Pseudomonas aeruginosa; assay: Synergistic antibacterial activity against Pseudomonas aeruginosa PA200 in presence of doxycycline by checkerboard assay; assay type: functional
# [37] = test system: Pseudomonas aeruginosa; assay: Synergistic antibacterial activity against Pseudomonas aeruginosa PA262 in presence of tigecycline by checkerboard assay; assay type: functional
# [38] = test system: Pseudomonas aeruginosa; assay: Synergistic antibacterial activity against Pseudomonas aeruginosa PA264 assessed as fractional inhibitory concentration index in presence of minocycline by checkerboard assay; assay type: functional
# [39] = test system: Pseudomonas aeruginosa; assay: Antibacterial activity against Pseudomonas aeruginosa PA259 assessed as eravacycline MIC by CLSI based broth-microdilution method; assay type: functional
# [40] = test system: Pseudomonas aeruginosa; assay: Antibacterial activity against Pseudomonas aeruginosa PA200 assessed as eravacycline MIC by CLSI based broth-microdilution method; assay type: functional
# [41] = test system: Pseudomonas aeruginosa; assay: Antibacterial activity against Pseudomonas aeruginosa PA259 assessed as doxycycline MIC by CLSI based broth-microdilution method; assay type: functional
# [42] = test system: Pseudomonas aeruginosa; assay: Synergistic antibacterial activity against Pseudomonas aeruginosa PA262 assessed as fractional inhibitory concentration index in presence of doxycycline by checkerboard assay; assay type: functional
# [43] = test system: Pseudomonas aeruginosa; assay: Synergistic antibacterial activity against Pseudomonas aeruginosa PA264 assessed as fold change in minocycline MIC by CLSI based broth-microdilution method relative to minocycline alone; assay type: functional
# [44] = test system: Pseudomonas aeruginosa; assay: Antibacterial activity against Pseudomonas aeruginosa PA264 assessed as reduction in bacterial load incubated for 2 hrs in presence of eravacycline by time kill assay; assay type: functional, organism-based
# [45] = test system: Pseudomonas aeruginosa; assay: Synergistic antibacterial activity against Pseudomonas aeruginosa PA262 in presence of eravacycline by checkerboard assay; assay type: functional
# [46] = test system: Pseudomonas aeruginosa; assay: Synergistic antibacterial activity against Pseudomonas aeruginosa PA259 in presence of doxycycline by checkerboard assay; assay type: functional
# [47] = test system: Pseudomonas aeruginosa; assay: Synergistic antibacterial activity against Pseudomonas aeruginosa PA259 in presence of eravacycline by checkerboard assay; assay type: functional
smiles,measurement,setting,value
Cl.Cl.Cl.Cl.Cl.Cl.NC[C@H]1O[C@H](O[C@H]2[C@H](OCCCCCCCCCCCCNC(=O)c3cn(C4CC4)c4cc(N5CCNCC5)c(F)cc4c3=O)[C@@H](O[C@H]3O[C@H](CO)[C@@H](O)[C@H](N)[C@H]3O)[C@H](N)C[C@@H]2N)[C@H](N)C[C@@H]1O,MIC,[1],8 µg/mL
same,MIC,[2],8 µg/mL
same,MIC,[3],> 128 µg/mL
same,Activity,[4],Active
same,MIC,[5],> 128 µg/mL
same,fractional inhibitory concentration index (FICI),[6],0.062
same,fold change (FC),[7],512
same,fold change (FC),[8],>512
same,MIC,[9],2 µg/mL
same,MIC,[10],2 µg/mL
same,MIC,[11],8 µg/mL
same,MIC,[12],> 128 µg/mL
same,fractional inhibitory concentration index (FICI),[13],0.008
same,fractional inhibitory concentration index (FICI),[14],0.015
same,fractional inhibitory concentration index (FICI),[15],0.008
same,fractional inhibitory concentration index (FICI),[16],0.25
same,Activity,[17],40%
same,MIC,[18],4 µg/mL
same,MIC,[19],2 µg/mL
same,fold change (FC),[20],2
same,fold change (FC),[21],256
same,MIC,[22],0.5 µg/mL
same,fractional inhibitory concentration index (FICI),[23],0.002
same,MIC,[24],0.125 µg/mL
same,MIC,[25],64 µg/mL
same,MIC,[26],8 µg/mL
same,MIC,[27],8 µg/mL
same,fold change (FC),[28],128
same,fractional inhibitory concentration index (FICI),[29],0.125
same,fold change (FC),[30],128
same,MIC,[31],0.125 µg/mL
same,MIC,[32],2 µg/mL
same,fractional inhibitory concentration index (FICI),[33],0.004
same,fractional inhibitory concentration index (FICI),[34],0.312
same,fractional inhibitory concentration index (FICI),[35],0.004
same,MIC,[36],8 µg/mL
same,MIC,[37],8 µg/mL
same,fractional inhibitory concentration index (FICI),[38],0.031
same,MIC,[39],0.062 µg/mL
same,MIC,[40],0.031 µg/mL
same,MIC,[41],0.5 µg/mL
same,fractional inhibitory concentration index (FICI),[42],0.002
same,fold change (FC),[43],128
same,Activity,[44],Active
same,MIC,[45],8 µg/mL
same,MIC,[46],8 µg/mL
same,MIC,[47],8 µg/mL
